From patent publication US20230321012A1 (priority 2021, published 2023)

Columns and labels:
[1] = tested on: polyamine transport in T cells (CD4+ and CD4- lymphocytes, whole human blood); assay: Ex vivo blood-based PD bioassay: C5 (fluorescent spermine) uptake into stimulated T cells by FACS; format: cell-based
Method: To evaluate the target engagement activity of AMXT 1501 after oral administration in human patients, an ex vivo PD assay assessing lymphocyte spermine uptake and inhibition of uptake by AMXT 1501 was developed. Briefly, uptake of a fluorescent-labeled spermine analog conjugate (Fl-Spm, Compound 5, C5, Annereau, J. P., et al., A fluorescent biomarker of the polyamine transport system to select patients with AML for F14512 treatment. Leuk Res. 2010 October; 34(10):1383-9) was assayed by fluorescence-activated cell sorting (FACS) analysis in CD4+ and CD4^− T cells in human blood samples stimulated with anti-CD3+ and anti-CD28+ antibodies.
Polyamine uptake in blood lymphocytes (CD4^+ or CD8^+ T cells) was measured at the same time points as the PK levels for AMXT 1501 were measured. Comparisons were made between uptake in the pre-treatment sample and samples taken over time following dosing.
Pharmacodynamic Bioassay. The purpose of this whole blood assay was to quantify the inhibition of polyamine transport in T cells in human subjects receiving AMXT 1501. Collected whole blood from subjects receiving AMXT 1501 was diluted with serum-free media and stimulated with anti-CD3 (T cell receptor engagement) and anti-CD28 (co-stimulatory signal) to drive T cell activation and proliferation for a total of three days. During the last 12-18 hours of culture, a fluorescently-labeled spermine analog (Fl-Spm, Compound 5, C5) was added to the in vitro culture to monitor polyamine uptake into cells. The functional activity (e.g., inhibitory effect) of AMXT 1501 on C5 uptake by T cells was then determined using flow cytometry by measuring the frequency and median fluorescence intensity (MFI) of C5 in T cells. Activation and proliferation of T cells is required for the uptake of C5; however, in the presence of high concentrations of AMXT 1501 in vitro, C5 uptake is inhibited despite active proliferation of T cells. Therefore, a whole blood sample spiked with high levels of AMXT 1501 prior to culture will be used as a positive control for each subject in this assay. […]

[2] = Water solubility, bioavailability and Biopharmaceutics Classification System class; format: physicochemical
Source text: Interim data for the pharmacokinetic (PK) behavior of both agents in human subjects has been generated.

water solubility [2] | Compound | EC50 ([1]; Homo sapiens, T-cell, read-out: ED50, inhibition of fluorescent-labeled spermine uptake) [nM] | ex vivo target engagement activity in patient whole blood ([1]; several Part 2 Cohort 3 patients, Day 7-8, oral AMXT 1501 dicaprate, preliminary) | concentration of maximal fluorescent-labeled spermine uptake inhibition ([1]; whole human blood, absence of DFMO) [nM]
– | CCCCCCCCCCCCCCCC(=O)NCCCC[C@@H](N)C(=O)NCCCNCCCCNCCCN [AMXT 1501, D-lys(palmitoyl)-spermine] | ~75 | sustained AMXT 1501 target engagement activity | 250
high water solubility | NCCCC(N)(C(=O)O)C(F)F (stereo not shown) [DFMO, difluoromethylornithine] | – | – | –
